According to the NIST ThermoML archive (doi:10.1016/j.jct.2011.08.008):

Assay: xn = mol fraction of the nth substance listed
Settings: 101 kPa, Liquid, Vibrating tube method

CCCCn1cc[n+](C)c1.[Cl-] [1-butyl-3-methylimidazolium chloride] + OCCO
mass density [kg/m3]
Settings | 298.15 K | 308.15 K | 318.15 K
x1 = 0.0132 | 1108.21 | 1101.08 | 1093.97
x1 = 0.0294 | 1106.1 | 1099.21 | 1092.21
x1 = 0.0484 | 1104.02 | 1097.19 | 1090.29
x1 = 0.1028 | 1098.95 | 1092.29 | 1085.61
x1 = 0.2101 | 1092.39 | 1085.44 | 1079.22
x1 = 0.3094 | 1088.58 | 1081.93 | 1075.58
x1 = 0.4202 | 1085.81 | 1079.23 | 1072.98
x1 = 0.4947 | 1084.46 | 1078.12 | 1072
x1 = 0.5992 | 1083.24 | 1077.18 | 1071.11
x1 = 0.7117 | 1082.47 | 1076.69 | 1070.76
x1 = 0.8143 | 1082.35 | 1076.51 | 1070.75
x1 = 0.9126 | 1082.27 | 1076.49 | 1070.88
x1 = 1 | 1082.01 | 1076.51 | 1071.04

CCCCn1cc[n+](C)c1.COS(=O)(=O)[O-] [1-butyl-3-methylimidazolium methyl sulfate] + OCCO
mass density [kg/m3]
Settings | 298.15 K | 308.15 K | 318.15 K
x1 = 0.0052 | 1110.66 | 1103.5 | 1096.12
x1 = 0.0512 | 1119.06 | 1111.91 | 1104.2
x1 = 0.1106 | 1128.96 | 1121.84 | 1114.04
x1 = 0.2135 | 1145.36 | 1138.27 | 1130.75
x1 = 0.3018 | 1156.55 | 1149.5 | 1142.35
x1 = 0.4059 | 1167.63 | 1160.69 | 1153.59
x1 = 0.5066 | 1176.9 | 1170.01 | 1162.97
x1 = 0.6163 | 1185.67 | 1178.75 | 1171.77
x1 = 0.7 | 1191.66 | 1184.71 | 1177.89
x1 = 0.8408 | 1199.42 | 1192.62 | 1185.85
x1 = 0.9244 | 1202.97 | 1196.25 | 1189.52
x1 = 1 | 1205.84 | 1199.25 | 1192.7

CCCCCCCC[n+]1ccn(C)c1.[Cl-] [1-methyl-3-octylimidazolium chloride] + OCCO
mass density [kg/m3]
Settings | 298.15 K | 308.15 K | 318.15 K
x1 = 0.0077 | 1106.07 | 1098.89 | 1091.83
x1 = 0.0589 | 1085.93 | 1078.94 | 1072.21
x1 = 0.119 | 1068.7 | 1061.98 | 1055.33
x1 = 0.2112 | 1050.79 | 1044.34 | 1037.95
x1 = 0.2985 | 1039.53 | 1033.27 | 1026.92
x1 = 0.4021 | 1030.4 | 1024.26 | 1017.91
x1 = 0.5118 | 1023.63 | 1017.52 | 1011.2
x1 = 0.6041 | 1019.49 | 1013.41 | 1007.18
x1 = 0.6999 | 1016.21 | 1010.14 | 1003.94
x1 = 0.7837 | 1013.92 | 1007.87 | 1001.74
x1 = 0.8328 | 1012.75 | 1006.75 | 1000.65
x1 = 0.9583 | 1010.27 | 1004.34 | 998.43
x1 = 1 | 1009.56 | 1003.74 | 997.92
